Test results reported in a melting point compilation (Tetko et al.; mined from patent text by program, amines drawn as free bases though some values may be those of a salt).

melting point [°C]	SMILES
207 to 210	CC(=O)C1=C(O)C(=C(C)Nc2ccc(S)cc2)C(=O)OC1=O
133 to 135	CCC(=O)OC(C)c1ccc(-c2ccc(O)cc2)cc1 (single isomer, unassigned; (+))
140 to 142	COc1cc2cc(N(C)C)sc2cc1OCc1ccccc1
224 to 225	CNc1nnc(-c2ccc3ncn(-c4ccc(SC)cc4)c3c2)o1
103 to 115	CCCn1cc(Cc2ccc(C(=O)NS(=O)(=O)c3ccccc3C)cc2OC)c2cc(CC3CCN(C)C3=O)ccc21 (centres undefined)
152 to 155	CC1c2ccccc2CC(=O)Cc2ccccc21
96 to 97	Cn1ncc2c1-c1c(Cc3ccccc3)sc(C(N)=O)c1CC2
> 320	CCOc1ccc(-c2c(O)c3ccc(Cl)cc3[nH]c2=O)cc1
228	Oc1ccc(N2CCN(CCC3C=Cc4ccccc43)CC2)cc1 (centres undefined)
93 to 94	Brc1ccc(Cc2nccc(-c3ccc(Br)cc3)n2)cc1
204 to 205	Cc1ccc(O)c2[nH]c(Cc3ccccc3)nc12
172 to 175	O=C(COc1ccccc1)NC(Cc1ccccc1)C(=O)NNc1ccccc1 (centres undefined)
196 to 197	O=C(O)C1CCc2c(n(C(=O)c3ccccc3)c3ccc(Cl)cc23)C1 (centres undefined)
227	O=C(Nc1cccc(S(=O)(=O)NCCO)c1)c1cnn2c(C(F)(F)F)cc(-c3ccc(C(F)(F)F)cc3)nc12
40.5 to 41	O=C1c2ccccc2COc2ccc(CCCOC(=O)C(F)(F)F)cc21
96 to 101	CN(C)CCCNS(=O)(=O)c1ccc(C(C)(C)c2cc(C(C)(C)CC(C)(C)C)cc(-n3nc4ccccc4n3)c2O)cc1
231	O=C(O)c1ccc(-c2cc(O)c(SCCc3ccccc3)c(=O)o2)cc1
196	CC(C)c1ccc(S(=O)(=O)n2c(Cc3ccc(C(=O)O)c(F)c3)cc3cc(Cl)ccc32)cc1
83 to 86	COc1cc(NC(=O)OC(C)(C)C)c(NC(=O)CC(=O)c2cccc(-n3ccnc3C)c2)cc1-c1ccccc1F
216 to 217	Cc1c(-c2ccc3c(c2)NC(=O)C(C)O3)nc2ccccn12 (centres undefined)
203 to 206	COc1cc(C(=O)O)ccc1Cc1cn(C)c2ccc(NC(=O)NC3CCCC3)cc12
154 to 155	CCCc1nnc(Cc2ccc(NC(=O)/C=C/c3cnn(C)c3-c3ccc(F)cc3)cc2)o1
177 to 178	COc1ccc(-c2cccc3[nH]c4c(c23)CCN(Cc2ccccc2)CC4)c(C)c1
184	COc1cc(CC(=O)Nc2ccc(C3CN(C(=O)CCC(=O)O)CC3C(=O)O)cc2)ccc1NC(=O)Nc1ccccc1C (centres undefined)
162 to 163	O=S(=O)(c1cc(Cl)cc(Cl)c1)n1ccc2c(N3CCN(Cc4ccccc4)CC3)cccc21
> 260	NS(=O)(=O)c1ccc(NC(=O)c2ccccc2SSCC(O)CO)cc1 (centres undefined)
228 to 230	O=C(CCN1CCOCC1)NCc1ccc2c(c1)-c1[nH]nc(-c3ccsc3)c1C2

More lines, now with the values behind:

SMILES	melting point [°C]
NCCNc1ccc(NCCO)cc1[N+](=O)[O-]	112
CCN(c1nc2c(cc1CN(Cc1cc(C(F)(F)F)cc(C(F)(F)F)c1)c1nnn(C)n1)c(C)nn2C)C1CCCC1	43 to 44
Cc1c(C(C)O)ssc1=S (centres undefined)	79 to 80
CCOC(=O)CCCC1(CCCC(=O)OCC)CC(=O)c2ccc(O)cc2O1	108 to 110
Cc1ccc2cc(NS(C)(=O)=O)ccc2n1	151 to 153
COc1cc(OC)nc(NC(=O)NS(=O)(=O)c2ccccc2C(O)c2cccs2)n1 (centres undefined)	152 to 154
CCCCCCc1ccc(C=CC(=O)c2ccc(OCC=C(C)C)cc2OCC(=O)OCC)cc1	56 to 57
CC(C)CCOC1CCC(=O)N1 (centres undefined)	73 to 75
CC1(C)CN2C(=O)c3nc[nH]c3N(Cc3ccc(Cl)cc3)C2=N1	222 to 223
COC(=O)Cc1ccc2c(c1)CC(NS(=O)(=O)c1ccc(Cl)cc1)C2 (centres undefined)	80 to 82
O=c1cc2c(n[nH]1)-c1ccc(O)cc1CC2	300
OCC1(Cc2ccc(Cl)c(Cl)c2)CCNCC1	148 to 149
CCOC(=O)C1(NS(=O)(=O)c2ccc3c(Cl)cnc(NC(=N)N)c3c2)CCC1	165 to 169
COc1ccc2c(c1)C(=O)N(c1cc3ccn(C)c3cn1)C2	205 to 210
CCCCCCCCCC(=O)Oc1ccc([N+](=O)[O-])cc1OC(=O)CCCCCCCCC	45 to 47
CCN(CC)CCOc1ccc(Nc2ncc3c(n2)N(C)C(=O)N(C2CCCCC2)C3)cc1	90 to 92
COC(=O)c1cc(N)c(N2CCCCC2)c(N)c1	133 to 134
O=C(Nc1ccc(-n2nc(C3CC3)cc2C2CC2)c(F)c1)c1c(F)cccc1F	182 to 186
Cc1cccnc1-n1c(=S)nc2c(C)cccn2c1=S	131 to 132
COC1(c2cc(F)cc(Sc3ccc(C(CO)=NO)cc3)c2)CCOCC1	145 to 146
Cc1nnc(-c2ccc3occ(-c4cc(C(F)(F)F)ccc4F)c3c2)o1	178 to 179

SMILES	melting point [°C]
CN1C(=O)N(c2ccccc2)C(=O)C1=NC(Cl)C(Cl)(Cl)Cl (centres undefined)	158 to 160
CC(=O)c1ccc(OCCCN2CCC(c3noc4cc(F)ccc34)CC2)cc1C	113 to 114
COc1ccc(N2CCN(c3c(C)c(C)c4c(c3C)C[C@@H](C)O4)CC2)cc1	127 to 128
CNC(=N)Nc1c(Cl)cccc1Cl	140
CCCOc1ccc(S(=O)(=O)NC)cc1C1=NC(=O)C2=NC=NC2=N1	245 to 246
CC(C)(C)C(=O)Oc1cc(-c2oc3ccccc3c(=O)c2C(=O)N2CCN(c3ccccn3)CC2)cc(OC(=O)C(C)(C)C)c1OC(=O)C(C)(C)C	120 to 125
CCCCCCCCOc1cc(-n2c(=O)cc(C(F)(F)F)n(C)c2=O)c(F)cc1Cl	60 to 63
COC(=O)c1c(O)cc(OCC(O)c2ccc3c(c2)C(C)(C)CCC3(C)C)cc1O (centres undefined)	127 to 128
CC(C)Nc1cccnc1N1CCN(C(=O)c2ccc(C(=O)NCC3CCCO3)cn2)CC1 (centres undefined)	108 to 110
CCOC(=O)c1cnc2nn(C)cc2c1N1CCN(C)CC1	142 to 143
COC(=O)c1csc(NC(=O)c2ccc(C#N)cc2)n1	228
CCN(CC)P(N)(=O)N(c1ccc(S(=O)(=O)c2ccccc2)cc1)c1ccc(S(=O)(=O)c2ccccc2)cc1 (centres undefined)	115 to 130
CC(C)(C)C(=O)Nc1nn(C(=O)C(C)(C)C)c(N)c1C#N	181 to 184
CCCCCCCCCCCCCC/C=C\CN1C(=O)c2ccccc2C1=O	56 to 60
COc1ccc(S(=O)CC(C)=O)cc1 (single isomer, unassigned; (-))	56 to 58
CN1CC(CCn2ccnc2)Oc2ncccc2C1=O (centres undefined)	150 to 152
CCCc1nc(CO)c(C)[nH]1	134 to 136
O=S1(=O)N=CN(C2CC2)c2cc(F)cc(Cl)c21	252 to 255
OCCCc1cnoc1-c1ccc(Cl)c(F)c1	51 to 52
CCC(O)(CC(=O)OC(C)(C)C)c1cc[nH]c(=O)c1 (centres undefined)	167
CCOc1ccc([N+](=O)[O-])c(NC2Cc3ccccc3C2)c1	151
